We go through 50 molecules from US6864253B2, “Benzo[4,5]thieno[2,3-c]pyridine and Benzo[4,5]furo[2,3-c]pyridine Derivatives Useful as Inhibitors of Phosphodiesterase” (Orth-McNeil Pharmaceutical, Inc., priority 2000, dated 2005).

Where “and” joins values, the source holds several entries; their conditions need not be identical. Equal entries are not always repeated.

The target in the first test is PDEV (Oryctolagus cuniculus, UniProt G1SX67). As to the kind of experiment: Cyclic nucleotide phosphodiesterase (PDE) assay, inhibition of PDEV isolated from rabbit tissue. Type of test: biochemical.
Settings: not given
On the procedure:
Briefly, rabbit or human tissues were homogenized in an ice-cold buffer solution containing 20 mM HEPES (pH 7.2), 0.25M sucrose, 1 mM EDTA, and 1 mM phenylmethylsulphonyl fluoride (PMSF). The homogenates were centrifuged at 100,000 g for 60 minutes at 4° C. The supernatant was filtered through […] filter and loaded on a Pharmacia Mono Q anion exchange column (1 ml bed volume) that was equilibrated with 20 mM HEPES, 1 mM EDTA and 0.5 mM PMSF. […] The fractions comprising various PDE activities were pooled separately and used in later studies.
The assays were adapted to a 96-well format. The enzyme was assayed in 5 mM MgCl2, 15 mM Tris HCl (pH 7.4), 0.5 mg/ml bovine serum albumin, 1 μM cGMP or cAMP, 0.1 μCi [^3H]-cGMP or [^3H]-cAMP, and 2-10 μl of column elution. The total volume of the assay was 100 μl. The reaction mixture was incubated at 30° C. for 30 minutes. The reaction was stopped by boiling for 1 minute and then cooled down on ice. The resulting [^3H] 5′-mononucleotides were further converted to uncharged [^3H]-nucleosides by adding 25 μl 1 mg/ml snake venom (Ophiophagus hannah) and incubating at 30° C. for 10 minute. The reaction was stopped by the addition of 1 ml Bio-Rad AG1-X2 resin slurry (1:3). All the charged nucleotides were bound by the resin and only the uncharged [^3H]-nucleosides remained in the supernatant after centrifuging. An aliquot of 200 μl was taken and counted by liquid scintillation. PDE activity was expressed as pmol cyclic nucleotide hydrolyzed/min/ml of enzyme preparation.
Inhibitor studies were carried out in assay buffer with a final concentration of 10% DMSO.
Molecule `CN(C)CCn1c2c(c3ccccc31)CCN(c1nc3ccccc3o1)C2c1ccc2c(c1)OCO2` (stereo not drawn) [Cmpd 155] showed an IC50 of 9.2 µM.

The test is the same for the next values; noted with them: 10 μM test compound; rabbit PDEV.
Consider `O=C(c1cnn(-c2ccccc2)c1C(F)(F)F)N1CCc2c([nH]c3ccccc23)C1c1ccc([N+](=O)[O-])cc1` (stereo not drawn) [Cmpd 131], for which the “% Inh @ 10 μM (rabbit)” value worked out at 12%. Consider `COC(=O)Cn1c2c(c3ccccc31)CCN(C(=O)c1ccc(-c3cccc(C(F)(F)F)c3)o1)C2c1ccc2c(c1)OCO2` (stereo not drawn) [Cmpd 25], for which the “% Inh @ 10 μM (rabbit)” value is listed as 20%. Same read-out and setting: the value for `Nc1cccc(-c2ccc(C(=O)N3CCc4c([nH]c5ccccc45)C3c3ccc4c(c3)OCO4)o2)c1` (stereo not drawn) [Cmpd 59] was 92%; that for `O=C(c1ccc(Cl)nc1)N1CCc2c([nH]c3ccccc23)C1c1ccc2c(c1)OCO2` (racemic) [Cmpd 108] was 48%; that for `c1ccc2sc(N3CCc4c([nH]c5ccccc45)C3c3ccc4c(c3)OCO4)nc2c1` (stereo not drawn) [Cmpd 3] was 84%. In the case of `CN(C)CCn1c2c(c3ccccc31)CCN(C(=O)c1ccc(-c3cccc(C(F)(F)F)c3)o1)C2c1ccc2c(c1)OCO2` (stereo not drawn) [Cmpd 35], the “% Inh @ 10 μM (rabbit)” value was 98%. The same measure, in the same setting: the value for `CC(C)(C)c1cc(C(=O)N2CCc3c([nH]c4ccccc34)C2c2ccc(Cl)c(C(F)(F)F)c2)n(Cc2ccccc2)n1` (stereo not drawn) [Cmpd 138] was 13%; that for `CN(C)c1ccc(C2c3[nH]c4ccccc4c3CCN2C(=O)c2ccc(-c3cccc([N+](=O)[O-])c3)o2)cc1` (stereo not drawn) [Cmpd 83] was 27%. As to `c1ccc2c3c([nH]c2c1)C(c1ccc2c(c1)CCO2)N(c1ncc(-c2ccc(OCCN4CCCC4)cc2)cn1)CC3` (stereo not drawn) [Cmpd 178], the “% INH @ 10 μM (rabbit)” value turned out to be 37%. For the molecule `CN(C)CCn1c2c(c3ccccc31)CCN(C(=O)c1cc3cc([N+](=O)[O-])ccc3o1)C2c1ccc2c(c1)OCO2` (stereo not drawn) [Cmpd 13], the “% Inh @ 10 μM (rabbit)” value is listed as 94%.

Take `Cc1cc(C(=O)N2CCc3c([nH]c4ccccc34)C2c2ccc(OCCCN(C)C)cc2)nn1-c1ccccc1` (racemic) [Cmpd 107]: the “% Inh @ 10 μM (rabbit)” value was 15%. The same measure, in the same setting: the value for `O=C(c1cnn(-c2ccc([N+](=O)[O-])cc2)c1C(F)(F)F)N1CCc2c([nH]c3ccccc23)C1c1ccc2c(c1)OCO2` (stereo not drawn) [Cmpd 125] was 54%. Take `c1ccc2c3c([nH]c2c1)C(c1ccc2c(c1)CCO2)N(c1ncc(-c2ccc(OCCN4CCOCC4)cc2)cn1)CC3` (stereo not drawn) [Cmpd 180]: the “% INH @ 10 μM (rabbit)” value is given as 40%.

On to `O=C(c1ccc(-c2cccc(C(F)(F)F)c2)o1)N1CCc2c(n(CCCCCl)c3ccccc23)C1c1ccc2c(c1)OCO2` (stereo not drawn) [Cmpd 27], for which the “% Inh @ 10 μM (rabbit)” value is 56%. On the same count and under the same terms, as for `CN(C)CCn1c2c(c3ccccc31)CCN(C(=O)c1cc3ccccc3s1)C2c1ccc2c(c1)OCO2` (stereo not drawn) [Cmpd 17], the figure is 88%; as for `O=C(c1ccc(Br)o1)N1CCc2c([nH]c3ccccc23)C1c1ccc2c(c1)OCO2` (stereo not drawn) [Cmpd 63], 78%; as for `COc1ccc(C2c3[nH]c4ccccc4c3CCN2C(=O)c2cc(C(C)(C)C)nn2Cc2ccccc2)cc1` (stereo not drawn) [Cmpd 141], 11%.

With `CN(C)CCn1c2c(c3ccccc31)CCN(C(=O)c1ccc(-c3ccc(Cl)cc3)o1)C2c1ccc2c(c1)OCO2` (stereo not drawn) [Cmpd 39], the “% Inh @ 10 μM (rabbit)” value worked out at 93%. Same read-out and setting: as for `O=C(c1cnn(-c2ccccc2)c1C(F)(F)F)N1CCc2c([nH]c3ccccc23)C1c1ccc(Cl)c(Cl)c1` (racemic) [Cmpd 120], the figure is 18%; as for `O=C(c1ccc(-c2cccc([N+](=O)[O-])c2)o1)N1CCc2c(n(C(=O)c3ccc(-c4cccc([N+](=O)[O-])c4)o3)c3ccccc23)C1c1ccc2c(c1)OC(F)(F)O2` (stereo not drawn) [Cmpd 19], 15%.

Consider `CC(C)(C)c1cc(C(=O)N2CCc3c([nH]c4ccccc34)C2c2ccc3c(c2)OCO3)n(Cc2ccccc2)n1` (stereo not drawn) [Cmpd 136], for which the “% Inh @ 10 μM (rabbit)” value stood at 18%.

In the case of `COc1ccc(-c2cnc(N3CCc4c(n(CCN(C)C)c5ccccc45)C3c3ccc4c(c3)OCO4)nc2)cc1` (stereo not drawn) [Cmpd 6], the “% Inh @ 10 μM (rabbit)” value turned out to be 95%.

For the molecule `CC(C)(C)c1cc(C(=O)N2CCc3c([nH]c4ccccc34)C2c2ccc(Cl)c(Cl)c2)n(Cc2ccccc2)n1` (stereo not drawn) [Cmpd 133], the “% Inh @ 10 μM (rabbit)” value is 1%. The same measure, in the same setting: the value for `N#Cc1ccc(C2c3[nH]c4ccccc4c3CCN2C(=O)c2cnn(-c3ccccc3)c2C(F)(F)F)cc1` (stereo not drawn) [Cmpd 128] was 11%; that for `CCCc1c(C(=O)N2CCc3c([nH]c4ccccc34)C2c2ccc3c(c2)OCO3)cnn1-c1ccccc1` (racemic) [Cmpd 122] was 65%; that for `O=C(c1ccc(-c2cccc(C(F)(F)F)c2)o1)N1CCc2c([nH]c3ccccc23)C1c1ccncc1` (stereo not drawn) [Cmpd 87] was 34%. On to `Cc1ccc(C2c3[nH]c4ccccc4c3CCN2C(=O)c2cc(C(C)(C)C)nn2Cc2ccccc2)cc1C` (stereo not drawn) [Cmpd 135], for which the “% Inh @ 10 μM (rabbit)” value is listed as 8%. As to `CN(C)CCOC(=O)C1Cc2c([nH]c3ccccc23)C(c2ccc3c(c2)OCO3)N1C(=O)c1ccc(-c2cccc([N+](=O)[O-])c2)o1` (stereo not drawn) [Cmpd 68], the “% Inh @ 10 μM (rabbit)” value came out at 35%. On the same count and under the same terms, as for `O=C(c1ccc(-c2cccc(C(F)(F)F)c2)o1)N1CCc2c(n(Cc3ccccn3)c3ccccc23)C1c1ccc2c(c1)OCO2` (stereo not drawn) [Cmpd 26], the figure is 88%. Same read-out and setting: the value for `O=C(c1ccc(-c2cccc([N+](=O)[O-])c2)o1)N1CCc2c([nH]c3ccccc23)C1c1ccc2c(c1)OCO2` (stereo not drawn) [Cmpd 54] was 81%; that for `O=C(c1cnn(-c2ccccc2)c1C(F)(F)F)N1CCc2c([nH]c3ccccc23)C1c1ccc2c(c1)OCO2` (stereo not drawn) [Cmpd 123] was 56%.

`O=C(O)Cn1c2c(c3ccccc31)CCN(C(=O)c1ccc(-c3cccc(C(F)(F)F)c3)o1)C2c1ccc2c(c1)OCO2` (stereo not drawn) [Cmpd 31]: the “% Inh @ 10 μM (rabbit)” value was 75%. Turning to `COc1ccc(C2c3[nH]c4ccccc4c3CCN2C(=O)c2cnn(-c3ccccc3)c2C(F)(F)F)cc1OC` (racemic) [Cmpd 121], the “% Inh @ 10 μM (rabbit)” value was determined as 10%. The same measure, in the same setting: the value for `O=C(c1ccc(-c2cc(C(F)(F)F)ccc2Cl)o1)N1CCc2c([nH]c3ccccc23)C1c1ccc2c(c1)OCO2` (stereo not drawn) [Cmpd 57] was 76%; that for `FC(F)(F)c1ccc(Cl)c(-c2ccc(CN3CCc4c([nH]c5ccccc45)C3c3ccc4c(c3)OCO4)o2)c1` (stereo not drawn) [Cmpd 11] was 53%; that for `CN(C)CCn1c2c(c3ccccc31)CCN(c1ncc(-c3ccc(Cl)cc3)cn1)C2c1ccc2c(c1)OCO2` (stereo not drawn) [Cmpd 4] was 94%.

Regarding `N#Cc1ccc(C2c3[nH]c4ccccc4c3CCN2C(=O)c2ccc(-c3cccc([N+](=O)[O-])c3)o2)cc1` (stereo not drawn) [Cmpd 80], the “% Inh @ 10 μM (rabbit)” value is reported as 27%.

Regarding `Cc1onc(-c2ccccc2)c1C(=O)N1CCc2c([nH]c3ccccc23)C1c1ccc(Cl)c(C(F)(F)F)c1` (racemic) [Cmpd 114], the “% Inh @ 10 μM (rabbit)” value came to 27%. As for `CN(C)CCn1c2c(c3ccccc31)CCN(C(=O)c1ccc(-c3cccc([N+](=O)[O-])c3)o1)C2c1ccc2c(c1)OCO2` (stereo not drawn) [Cmpd 38], the “% Inh @ 10 μM (rabbit)” value came out at 91%. With `Cc1ccc(C2c3[nH]c4ccccc4c3CCN2C(=O)c2c(-c3ccccc3)noc2C)cc1C` (racemic) [Cmpd 111], the “% Inh @ 10 μM (rabbit)” value stood at 35%. Consider `O=C(c1ccc(-c2ccc([N+](=O)[O-])cc2)o1)N1CCc2c([nH]c3ccccc23)C1c1ccc2c(c1)OCO2` (stereo not drawn) [Cmpd 50], for which the “% Inh @ 10 μM (rabbit)” value is given as 76%.

Staying with this test, now noted: 10 μM test compound; rabbit PDEV; 10 µM.
Take `CCN(CC)CCn1c2c(c3ccccc31)CCN(C(=O)c1ccc(-c3cccc(C(F)(F)F)c3)o1)C2c1ccc2c(c1)OCO2` (stereo not drawn) [Cmpd 33]: the “% Inh @ 10 μM (rabbit)” value is 88% and 63%. In the case of `O=C(c1ccc(-c2ccc(Cl)cc2[N+](=O)[O-])o1)N1CCc2c([nH]c3ccccc23)C1c1ccc2c(c1)OCO2` (stereo not drawn) [Cmpd 47], the “% Inh @ 10 μM (rabbit)” value was 83%. Regarding `COc1ccc(-c2cnc(N3CC(O)c4c([nH]c5ccccc45)C3c3ccc4c(c3)OCO4)nc2)cc1` (stereo not drawn) [Cmpd 158, 1-(3,4-Methylenedioxy-phenyl)-2-[5-(4-methoxyphenyl)-pyrimidin-2-yl]-4-hydoxy-2,3,4,9-tetrahydro-1H-β-carboline], the “% INH @ 10 μM (rabbit)” value is 49%.

`O=C(c1ccc(-c2ccc(Cl)cc2[N+](=O)[O-])o1)N1CCc2c([nH]c3ccccc23)C1c1ccc2c(c1)OCO2` (stereo not drawn) [Cmpd 66]: the “% Inh @ 10 μM (rabbit)” value is 23%.

Still in this test, the particulars now being: 10 μM test compound; rabbit PDEV; read-out: % INH @ 10 μM (rabbit).
Turning to `CN(C)CCn1c2c(c3ccccc31)CCN(C(=O)c1cc3ccccc3o1)C2c1ccc2c(c1)OCO2` (stereo not drawn) [Cmpd 147], the inhibition at 10 µM was found to be 52%. `CN(C)CCn1c2c(c3ccccc31)CCN(c1nc3ccccc3o1)C2c1ccc2c(c1)OCO2` (stereo not drawn) [Cmpd 155]: the inhibition at 10 µM is 57%.

Turning to `COc1ccc(-c2cnc(N3CCc4c(n(CCN5CCCC5)c5ccccc45)C3c3ccc4c(c3)OCO4)nc2)cc1` (stereo not drawn) [Cmpd 148], the inhibition at 10 µM stood at 66%.

`CN(C)CCn1c2c(c3ccccc31)CCN(C(=O)c1ccc(-c3ccccc3)o1)C2c1ccc2c(c1)OCO2` (stereo not drawn) [Cmpd 152]: the inhibition at 10 µM is 80%.

As to `O=C(c1ccc(-c2ccccc2)o1)N1CCc2c([nH]c3ccccc23)C1c1ccc2c(c1)OCO2` (stereo not drawn) [Cmpd 149], the inhibition at 10 µM turned out to be 80%.
